Laboratory results as given in article PMC7385619, “A triple action CDK4/6-PI3K-BET inhibitor with augmented cancer cell cytotoxicity” (Cell Discovery, 2020).

Biological target: CDK4 (Homo sapiens, UniProt P11802)
Experiment: In vitro kinase assay, CDK4
Assay type: biochemical
Details: Fig. 1b; italicized values from the literature (italics not visible)

Sequence of CDK4 (P11802 whole entry): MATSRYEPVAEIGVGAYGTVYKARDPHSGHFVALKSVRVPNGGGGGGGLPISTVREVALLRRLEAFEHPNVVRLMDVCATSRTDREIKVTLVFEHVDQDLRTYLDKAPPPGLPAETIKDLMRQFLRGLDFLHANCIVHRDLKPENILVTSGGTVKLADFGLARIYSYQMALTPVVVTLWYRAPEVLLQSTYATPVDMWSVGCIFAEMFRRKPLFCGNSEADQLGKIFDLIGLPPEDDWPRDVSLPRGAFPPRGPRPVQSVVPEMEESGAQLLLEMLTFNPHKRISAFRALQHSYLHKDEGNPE
Sequence of CDK4 (P24385 whole entry partner): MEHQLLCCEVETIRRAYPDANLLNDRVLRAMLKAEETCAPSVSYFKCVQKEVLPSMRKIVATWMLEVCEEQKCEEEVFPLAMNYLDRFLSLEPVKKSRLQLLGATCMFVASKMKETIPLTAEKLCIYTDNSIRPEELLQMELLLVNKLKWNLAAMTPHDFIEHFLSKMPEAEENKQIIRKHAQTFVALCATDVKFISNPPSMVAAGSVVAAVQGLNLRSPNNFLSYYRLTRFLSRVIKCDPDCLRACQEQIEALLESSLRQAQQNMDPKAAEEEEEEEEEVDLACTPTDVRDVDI

## CN(C)C(=O)c1cc2cnc(Nc3ccc(-c4csc5c(=O)cc(N6CCOCC6)oc45)cc3)nc2n1C1CCCC1 [SRX3177]
  IC50: < 2.5 nM
